In US8946439B2, “Amide compounds, compositions and uses thereof” (Evotec AG, priority 2008, dated 2015):
Like-named read-outs stand apart in the source and are kept apart here.

Key:
hP2X2/3H = biological target: T1, hP2X2/3H (Homo sapiens, UniProt P56373+Q9UBL9); test: Calcium uptake assay (P2X antagonist assay), P2X2/3 heteromer; type: cell-based; conditions: hP2X2/3H
T1 construct: expressed in transfected cells; host or cells: e.g. HEK293 or 1321N1
T1 sequence (Q9UBL9 1-471): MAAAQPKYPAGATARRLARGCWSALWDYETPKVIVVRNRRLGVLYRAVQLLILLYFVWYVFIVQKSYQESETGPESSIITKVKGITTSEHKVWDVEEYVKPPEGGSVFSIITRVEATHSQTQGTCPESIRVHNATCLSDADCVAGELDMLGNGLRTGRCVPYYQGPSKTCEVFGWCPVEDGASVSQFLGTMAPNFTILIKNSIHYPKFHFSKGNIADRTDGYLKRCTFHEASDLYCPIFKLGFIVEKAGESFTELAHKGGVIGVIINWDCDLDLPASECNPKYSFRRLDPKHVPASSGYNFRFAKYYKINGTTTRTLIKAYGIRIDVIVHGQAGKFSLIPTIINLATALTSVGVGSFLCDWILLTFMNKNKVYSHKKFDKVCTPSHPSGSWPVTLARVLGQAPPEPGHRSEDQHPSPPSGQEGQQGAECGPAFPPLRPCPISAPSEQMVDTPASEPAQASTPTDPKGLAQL
T1 sequence (P56373 1-397): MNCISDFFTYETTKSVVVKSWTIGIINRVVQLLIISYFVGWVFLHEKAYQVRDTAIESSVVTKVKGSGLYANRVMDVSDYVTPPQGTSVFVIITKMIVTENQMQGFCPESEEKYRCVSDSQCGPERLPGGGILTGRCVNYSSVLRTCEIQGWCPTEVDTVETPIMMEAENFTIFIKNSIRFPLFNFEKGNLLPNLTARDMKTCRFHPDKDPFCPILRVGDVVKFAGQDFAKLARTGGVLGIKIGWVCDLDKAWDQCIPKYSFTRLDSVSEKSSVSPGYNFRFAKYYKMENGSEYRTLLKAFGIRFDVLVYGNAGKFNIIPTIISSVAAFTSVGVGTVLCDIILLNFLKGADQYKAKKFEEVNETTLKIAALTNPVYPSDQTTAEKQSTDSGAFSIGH
Outline: (§1)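 Stably or transiently transfected HEK293 or 1321N1 cells; the heteromer is made by adding P2X3 to a P2X2-stable line, with heteromer function isolated pharmacologically. The peak-minus-baseline FLIPR calcium signal gives % inhibition and a 4-parameter-logistic IC50.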

hP2X3 = biological target: T2, hP2X3 (Homo sapiens, UniProt P56373); test: Calcium uptake assay (P2X antagonist assay), P2X3 homomer; type: cell-based; conditions: hP2X3
T2 construct: expressed in transfected cells; host or cells: e.g. HEK293 or 1321N1
T2 sequence (P56373 1-397): T1 sequence (P56373 1-397)
Outline: as §1

[1] = calcium uptake assay, read-out: IC50 hP2X2/3H (nM), Ca Influx
[2] = calcium uptake assay, read-out: IC50 hP2X3 (nM), Ca Influx
[3] = Ca influx (calcium uptake assay), read-out: IC50 hP2X2/3H
[4] = Ca influx (calcium uptake assay), read-out: IC50 hP2X3

Row | SMILES | IC50 (hP2X2/3H; [1]) [nM] | IC50 (hP2X3; [2]) [nM] | IC50 (hP2X2/3H; [3]) [nM] | IC50 (hP2X3; [4]) [nM]
1 | Cc1ccc(-c2cc(C(=O)NC(C)c3ccc(C)nc3)cc(C(=O)N3CCCC3)c2)nc1 (centres unmarked) [Compound 118] | < 100 | < 100 | – | –
2 | Cc1ccc(-c2cc(C(=O)NCc3ccc(C)nc3)cc(C(=O)N3[C@H](C)CC[C@H]3C)c2)cc1 [Compound 195] | < 100 | < 100 | – | –
3 | Cc1ccc(-c2cc(C(=O)N[C@H](C)c3ccc(C(F)(F)F)nc3)cc(C(=O)N(C)CC(C)C)c2)cc1 [Compound 10, (R)—N3-Isobutyl-N3,4′-dimethyl-N5-(1-(6-(trifluoromethyl)pyridin-3-yl)ethyl)biphenyl-3,5-dicarboxamide] | 100 to 500 | 100 to 500 | – | –
4 | COCCOc1cc(C(=O)N[C@H](C)c2cnc(C)nc2)cc(-c2ccc(C)cn2)c1 [Compound 266] | – | – | 100 to 500 | < 100
5 | Cc1ccc(-c2cc(C(=O)NCc3ccc(C)nc3)cc(C(=O)N3CCNCC3)c2)cc1 [Compound 124] | 100 to 500 | < 100 | – | –
6 | Cc1ccc(-c2cc(C(=O)NCc3ncc(Cl)cc3Cl)cc(C(=O)N3CCCC3)c2)cc1 [Compound 81] | < 100 | < 100 | – | –
7 | Cc1ccc(-c2cc(CO)cc(C(=O)NCc3cnc(C)nc3)c2)c(C#N)c1 [Compound 304] | – | – | 100 to 500 | < 100
8 | Cc1ccc(-c2cc(OC3CNCC3O)cc(C(=O)N[C@H](C)c3ccc(C)nc3)c2)nc1 (some centres unmarked) [Compound 339] | – | – | 100 to 500 | < 100
9 | CCCS(=O)(=O)c1cc(C(=O)NCc2cnc(C)nc2)cc(-c2ccc(C)cc2)c1 [Compound 43] | < 100 | < 100 | – | –
10 | Cc1ccc(-c2cc(CO)cc(C(=O)N[C@H](C)c3ccc(C)nc3)c2)cc1 [Compound 320] | – | – | 100 to 500 | < 100
11 | Cc1ccc(-c2cc(C(=O)NCc3ccc(C)c(S(C)(=O)=O)c3)cc(C(=O)N3CCCC3)c2)cc1 [Compound 71] | < 100 | < 100 | – | –
12 | Cc1ccc(-c2cc(C(=O)N[C@H](C)c3ccc(C)nc3)cc(C(O)CO)c2)c(C#N)c1 (some centres unmarked) [Compound 298] | – | – | < 100 | < 100
13 | Cc1ccc(-c2cc(C(=O)N[C@H](CO)c3ccc(C(F)F)nc3)cc(S(C)(=O)=O)c2)cc1 [Compound 207] | – | – | < 100 | < 100
14 | Cc1ccc(-c2cc(C(=O)NCc3ccc(C)nc3)cc(S(=O)(=O)N3CCCC3)c2)nc1 [Compound 106] | < 100 | < 100 | – | –
15 | Cc1ccc(-c2cc(C(=O)NCc3ccc(C)nc3)cc(C(O)C(F)(F)F)c2)c(C#N)c1 (centres unmarked) [Compound 296] | – | – | < 100 | < 100
16 | Cc1ccc(-c2cc(Oc3nccs3)cc(C(=O)N[C@H](C)c3cnc(C)nc3)c2)nc1 [Compound 269, (R)-3-(5-Methylpyridin-2-yl)-N-(1-(2-methylpyrimidin-5-yl)ethyl)-5-(thiazol-2-yloxy)benzamide] | – | – | < 100 | < 100
17 | Cc1ccc(-c2cc(OCC3CNCCO3)cc(C(=O)N[C@H](C)c3ccc(C)nc3)c2)nc1 (some centres unmarked) [Compound 349] | – | – | 100 to 500 | < 100
18 | Cc1ccc(-c2cc(OC(C)CO)cc(C(=O)N[C@H](C)c3ccc(C)nc3)c2)cc1 (some centres unmarked) [Compound 346] | – | – | < 100 | < 100
19 | Cc1ccc(-c2cc(C(=O)NCc3ccc(C)nc3)cc(S(=O)(=O)N3CCCC3)c2)c(C#N)c1 [Compound 148] | > 1000 | < 100 | – | –
20 | Cc1ccc(-c2cc(C(=O)N[C@@H](C)CN3CCOCC3)cc(C(=O)N3CCCC3)c2)cc1 [Compound 82] | 501 to 1000 | < 100 | – | –
21 | Cc1ccc(-c2cc(C(=O)N[C@H](C)c3cnc(C)nc3)cc(C(=O)N3CC(O)C3)c2)cc1 [Compound 76] | < 100 | < 100 | – | –
22 | Cc1ccc(CNC(=O)c2cc(-c3ccc(Cl)c(Cl)c3)cc(S(C)(=O)=O)c2)cn1 [Compound 112] | > 1000 | > 1000 | – | –

Row | SMILES | IC50 (hP2X2/3H; [1]) [nM] | IC50 (hP2X3; [2]) [nM] | IC50 (hP2X2/3H; [3]) [nM] | IC50 (hP2X3; [4]) [nM]
23 | Cc1ccc(-c2cc(C(=O)NCc3cnc(C)nc3)cc(C(=O)N3CCC(F)(F)C3)c2)cc1 [Compound 34, 5-(3,3-Difluoropyrrolidine-1-carbonyl)-4′-methyl-N-((2-methylpyrimidin-5-yl)methyl)biphenyl-3-carboxamide] | < 100 | < 100 | – | –
24 | Cc1ccc(-c2cc(C(=O)N[C@H](C)c3ccc(C)nc3)cc(C(=O)N3CCCC3)c2)cc1 [Compound 176] | < 100 | < 100 | – | –
25 | Cc1ccc(-c2cc(C(=O)N[C@H](C)c3cnc(C)nc3)cc(C(O)c3ccccc3)c2)c(C#N)c1 (some centres unmarked) [Compound 278] | – | – | < 100 | < 100
26 | COCC(C)Oc1cc(C(=O)N[C@H](C)c2ccc(C)nc2)cc(-c2ccc(C)cc2)c1 (some centres unmarked) [Compound 299] | – | – | < 100 | < 100
27 | Cc1ccc(-c2cc(C(=O)NCc3ccc(C)nc3)cc(C(O)CO)c2)c(C#N)c1 (centres unmarked) [Compound 297, 2′-Cyano-5-(1,2-dihydroxyethyl)-4′-methyl-N-((6-methylpyridin-3-yl)methyl)biphenyl-3-carboxamide] | – | – | 100 to 500 | < 100
28 | Cc1ccc(-c2cc(C(=O)NCc3cnc(C)nc3)cc(C(=O)N3CCN(C)CC3)c2)cc1 [Compound 25] | 100 to 500 | < 100 | – | –
29 | Cc1ccc(-c2cc(C(=O)NCc3ccc(C)nc3)cc(C(=O)N(C)C)c2)cc1 [Compound 166, N3,N3,4′-Trimethyl-N5-((6-methylpyridin-3-yl)methyl)biphenyl-3,5-dicarboxamide] | 100 to 500 | < 100 | – | –
30 | Cc1ccc(-c2cc(C(=O)NCc3ccc4cccnc4c3)cc(S(C)(=O)=O)c2)cc1 [Compound 23] | 100 to 500 | 100 to 500 | – | –
31 | Cc1ccc(-c2cc(C(=O)N[C@H](C)c3cnc(C)nc3)cc(C(O)c3ccccn3)c2)c(C#N)c1 (some centres unmarked) [Compound 285] | – | – | < 100 | < 100
32 | Cc1ncc(CNC(=O)c2cc(C(=O)N3CCCC3)cc(-c3ccc(C(F)(F)F)cc3)c2)cn1 [Compound 54] | > 1000 | > 1000 | – | –
33 | Cc1ccc(-c2cc(C(=O)NC(c3ccc(C)nc3)C(F)(F)F)cc(S(C)(=O)=O)c2)cc1 (centres unmarked) [Compound 213] | – | – | > 1000 | > 1000
34 | COc1ccc([C@@H](CO)NC(=O)c2cc(-c3ccc(C)cc3)cc(S(C)(=O)=O)c2)cn1 [Compound 206, (S)—N-(2-Hydroxy-1-(6-methoxypyridin-3-yl)ethyl)-4′-methyl-5-(methylsulfonyl)biphenyl-3-carboxamide] | – | – | < 100 | < 100
35 | Cc1ccc(-c2cc(Oc3ccccn3)cc(C(=O)N[C@H](C)c3ccc(C)nc3)c2)nc1 [Compound 271] | – | – | < 100 | < 100
36 | Cc1ccc(-c2cc(C(=O)NCc3cnc(C)nc3)cc(S(=O)(=O)C(C)C)c2)cc1 [Compound 201] | – | – | < 100 | < 100
37 | Cc1ccc(-c2cc(CN(C)C)cc(C(=O)N[C@H](C)c3ccc(C)nc3)c2)cc1 [Compound 340, (R)-5-((Dimethylamino)methyl)-4′-methyl-N-(1-(6-methylpyridin-3-yl)ethyl)biphenyl-3-carboxamide] | – | – | 100 to 500 | < 100
38 | Cc1ccc(-c2cc(C(=O)N[C@H](C)c3cnc(C)nc3)cc(C(O)C(C)C)c2)cc1 (some centres unmarked) [Compound 397] | – | – | < 100 | < 100
39 | Cc1ccc(-c2cc(Oc3nccs3)cc(C(=O)N[C@H](C)c3ccc(C)nc3)c2)cc1 [Compound 239] | – | – | < 100 | < 100
40 | CCN(CC)CC(O)c1cc(C(=O)N[C@H](C)c2ccc(C)nc2)cc(-c2ccc(C)cn2)c1 (stereo partly drawn) [Compound 342, 3-(2-(Diethylamino)-1-hydroxyethyl)-5-(5-methylpyridin-2-yl)-N—((R)-1-(6-methylpyridin-3-yl)ethyl)benzamide] | – | – | 100 to 500 | < 100
41 | Cc1ccc(-c2cc(OCC3COCCO3)cc(C(=O)N[C@H](C)c3ccc(C)nc3)c2)c(C#N)c1 (some centres unmarked) [Compound 317] | – | – | < 100 | < 100
42 | Cc1ccc(-c2cc(C(=O)NCc3ccc(C)nc3)cc(C(=O)N3CCCC3)c2)nc1 [Compound 122, 3-(5-Methylpyridin-2-yl)-N-((6-methylpyridin-3-yl)methyl)-5-(pyrrolidine-1-carbonyl)benzamide] | < 100 | < 100 | – | –
43 | Cc1ccc(-c2cc(C(=O)NC(CCO)c3ccc(C(F)(F)F)nc3)cc(C(=O)N3CCCC3)c2)cc1 (centres unmarked) [Compound 83, N-(3-Hydroxy-1-(6-(trifluoromethyl)pyridin-3-yl)propyl)-4′-methyl-5-(pyrrolidine-1-carbonyl)biphenyl-3-carboxamide] | 100 to 500 | 100 to 500 | – | –
